Data published in patent publication US11072608B2, “Pesticidally active heterocyclic derivatives with sulphur containing substituents” (SYNGENTA PARTICIPATIONS AG, priority 2014, dated 2021).

Experiments:
[1] = test system: Plutella xylostella (diamond back moth); assay: Example B3: activity against Plutella xylostella, artificial diet; format: in vivo; conditions: 120 h, application rate of 200 ppm, L2 larvae, 5 days after infestation, read-out: effect in at least one of the two categories (mortality or growth inhibition)
Description: Example B3: Activity Against Plutella xylostella (Diamond Back Moth)
24-well microtiter plates with artificial diet were treated with aqueous test solutions prepared from 10,000 ppm DMSO stock solutions by pipetting. After drying, the plates were infested with L2 larvae (10 to 15 per well). The samples were assessed for mortality and growth inhibition in comparison to untreated samples 5 days after infestation. The following compound gave an effect of at least 80% in at least one of the two categories (mortality or growth inhibition) at an application rate of 200 ppm: P1, P4, P5, P6, P8, P9, P10, P11, P12 and P13.

[2] = test system: Diabrotica balteata (corn root worm); assay: Example B4: activity against Diabrotica balteata, maize sprouts spray; format: in vivo; conditions: 96 h, application rate of 200 ppm, L2 larvae, 4 days after infestation, read-out: effect in at least one of the two categories (mortality or growth inhibition)
Description: Example B4: Activity Against Diabrotica balteata (Corn Root Worm)
Maize sprouts, placed on an agar layer in 24-well microtiter plates were treated with aqueous test solutions prepared from 10,000 ppm DMSO stock solutions by spraying. After drying, the plates were infested with L2 larvae (6 to 10 per well). The samples were assessed for mortality and growth inhibition in comparison to untreated samples 4 days after infestation. The following compounds gave an effect of at least 80% in at least one of the two categories (mortality or growth inhibition) at an application rate of 200 ppm: P1, P4, P5, P6, P8, P9, P10, P11, P12 and P13.

[3] = test system: Spodoptera littoralis (Egyptian cotton leaf worm); assay: Example B1: activity against Spodoptera littoralis, cotton leaf disc spray; format: in vivo; conditions: foliar, 72 h, application rate of 200 ppm, cotton leaf discs, L1 larvae, 3 days after infestation, read-out: control in at least one of the three categories (mortality, anti-feedancy or growth inhibition)
Description: Example B1: Activity Against Spodoptera littoralis (Egyptian Cotton Leaf Worm)
Cotton leaf discs were placed on agar in 24-well microtiter plates and sprayed with aqueous test solutions prepared from 10,000 ppm DMSO stock solutions. After drying the leaf discs were infested with five L1 larvae. The samples were assessed for mortality, anti-feedant effect, and growth inhibition in comparison to untreated samples 3 days after infestation. Control of Spodoptera littoralis by a test sample is when at least one of mortality, anti-feedant effect, and growth inhibition is higher than the untreated sample. The following compound gave an effect of at least 80% control in at least one of the three categories (mortality, anti-feedancy or growth inhibition) at an application rate of 200 ppm: P1, P4, P5, P8, P9, P10, P12 and P13.

[4] = test system: Euschistus heros (neotropical brown stink bug); assay: Example B8: activity against Euschistus heros, soybean leaf spray; format: in vivo; conditions: 120 h, application rate of 200 ppm, N-2 nymphs, 5 days after infestation
Description: Example B8: Activity Against Euschistus heros (Neotropical Brown Stink Bug)
Soybean leaf on agar in 24-well microtiter plates were sprayed with aqueous test solutions prepared from 10,000 ppm DMSO stock solutions. After drying the leaf were infested with N-2 nymphs. The samples were assessed for mortality 5 days after infestation.

[5] = test system: Myzus persicae (green peach aphid); assay: Example B5: activity against Myzus persicae, sunflower leaf disc spray; format: in vivo; conditions: foliar, 144 h, application rate of 200 ppm, sunflower leaf discs, mixed ages, 6 days after infestation
Description: Example B5: Activity Against Myzus persicae (Green Peach Aphid)
(§1) Sunflower leaf discs were placed on agar in a 24-well microtiter plate and sprayed with aqueous test solutions prepared from 10,000 ppm DMSO stock solutions. After drying, the leaf discs were infested with an aphid population of mixed ages. The samples were assessed for mortality 6 days after infestation.

[6] = test system: Thrips tabaci (onion thrips); assay: Example B11: activity against Thrips tabaci, sunflower leaf disc spray; format: in vivo; conditions: foliar, 144 h, application rate of 200 ppm, sunflower leaf discs, mixed ages, 6 days after infestation
Description: Example B11: Activity Against Thrips tabaci (Onion Thrips)
as §1, with “in” for “in a”, “plates” for “plate”, “drying” for “drying,”, “a Thrips” for “an aphid”

[7] = test system: Spodoptera littoralis (Egyptian cotton leaf worm); assay: Example B2: activity against Spodoptera littoralis, systemic via lettuce on agar; format: in vivo; conditions: 144 h, application rate of 12.5 ppm, Spodoptera eggs, 6 days after infestation, read-out: control in at least one of the three categories (mortality, anti-feedancy or growth inhibition)
Text: Example B2: Activity Against Spodoptera Littoralis (Egyptian Cotton Leaf Worm)
Test compounds were applied by pipette from 10,000 ppm DMSO stock solutions into 24-well plates and mixed with agar. Lettuce seeds were placed on the agar and the multi well plate was closed by another plate which contains also agar. After 7 days the roots have absorbed the compound and the lettuce has grown into the lid plate. The lettuce leafs were now cut off into the lid plate. Spodoptera eggs were pipetted through a plastic stencil on a humid gel blotting paper and the plate closed with it. The samples were assessed for mortality, anti-feedant effect and growth inhibition in comparison to untreated samples 6 days after infestation. The following compound gave an effect of at least 80% control in at least one of the three categories (mortality, anti-feedancy or growth inhibition) at an application rate of 12.5 ppm: P1, P4, P9, P12 and P13.

[8] = test system: Bemisia tabaci (cotton white fly); assay: Example B7: activity against Bemisia tabaci, cotton leaf disc spray; format: in vivo; conditions: foliar, 144 h, application rate of 200 ppm, cotton leaf discs, adult white flies, 6 days after incubation
Description: Example B7: Activity Against Bemisia tabaci (Cotton White Fly)
Cotton leaf discs were placed on agar in 24-well microtiter plates and sprayed with aqueous test solutions prepared from 10,000 ppm DMSO stock solutions. After drying the leaf discs were infested with adult white flies. The samples were checked for mortality 6 days after incubation.

[9] = test system: Frankliniella occidentalis (western flower thrips); assay: Example B10: activity against Frankliniella occidentalis, sunflower leaf disc spray; format: in vivo; conditions: foliar, 168 h, application rate of 200 ppm, sunflower leaf discs, mixed ages, 7 days after infestation
Description: Example B10: Activity Against Frankliniella occidentalis (Western Flower Thrips)
as §1, with “in” for “in a”, “plates” for “plate”, “10,000” for “10,000 ppm”, “drying” for “drying,”, “a Frankliniella” for “an aphid”, “7” for “6”

[10] = test system: Myzus persicae (green peach aphid); assay: Example B9: activity against Myzus persicae, roots of pea seedlings in test solution; format: in vivo; conditions: 144 h, test rate of 24 ppm, 6 days
Description: Example B9: Activity Against Myzus persicae (Green Peach Aphid)
Roots of pea seedlings infested with an aphid population of mixed ages were placed directly into aqueous test solutions prepared from 10,000 DMSO stock solutions. The samples were assessed for mortality 6 days after placing seedlings into test solutions.

melting point [°C] | SMILES | percent effect (mortality or growth inhibition) at 200 ppm [1] [%] | percent effect (mortality or growth inhibition) at 200 ppm [2] [%] | percent control (mortality, anti-feedancy or growth inhibition) at 200 ppm [3] [%] | mortality at 200 ppm [4] [%] | mortality at 200 ppm [5] [%] | mortality at 200 ppm [6] [%] | control at 12.5 ppm [7] [%] | mortality at 200 ppm [8] [%] | mortality at 200 ppm [9] [%] | mortality at 24 ppm [10] [%]
 | CCS(=O)(=O)c1cc(C2CCCC2)cnc1-c1nc2cc(C(F)(F)F)cnc2n1C [Compound P5] | ≥ 80 | ≥ 80 | ≥ 80 | ≥ 80 | ≥ 80 |  |  |  |  | 
136 to 138 | CCSc1cc(C2CCC2)cnc1-c1nc2cc(C(F)(F)F)cnc2n1C [Compound P7] |  |  |  |  |  |  |  |  |  | 
 | CCS(=O)(=O)c1cc(C2(C#N)CC2)cnc1-c1nc2cc(SC(F)(F)F)cnc2n1C [Compound P13, 1-[5-ethylsulfonyl-6-[3-methyl-6-(trifluoro-methylsulfanyl)imidazo[4,5-b]pyridin-2-yl]-3-pyridyl]cyclopropanecarbonitrile] | ≥ 80 | ≥ 80 | ≥ 80 | ≥ 80 | ≥ 80 | ≥ 80 | ≥ 80 | ≥ 80 | ≥ 80 | 
 | CCS(=O)(=O)c1cc(C2(C#N)CC2)cnc1-c1nc2cc(C(F)(F)F)cnc2n1C [Compound P9, 1-[5-ethylsulfonyl-6-[3-methyl-6-(trifluoromethyl)imidazo[4,5-b]pyridin-2-yl]-3-pyridyl]cyclopropanecarbonitrile] | ≥ 80 | ≥ 80 | ≥ 80 | ≥ 80 | ≥ 80 | ≥ 80 | ≥ 80 | ≥ 80 | ≥ 80 | ≥ 80
 | CCS(=O)(=O)c1cc(C2CCC2)cnc1-c1nc2cc(C(F)(F)F)cnc2n1C [Compound P8] | ≥ 80 | ≥ 80 | ≥ 80 | ≥ 80 | ≥ 80 |  |  | ≥ 80 |  | 
163 to 165 | CCS(=O)(=O)c1ccc(C2CC2)nc1-c1nc2cc(C(F)(F)F)cnc2n1C [Compound P14, 2-(6-cyclopropyl-3-ethylsulfonyl-2-pyridyl)-3-methyl-6-(trifluoromethyl)imidazo[4,5-b]pyridine] |  |  |  |  |  |  |  |  |  | 
 | CCS(=O)(=O)c1cc(C2(C(=O)O)CC2)cnc1-c1nc2cc(C(F)(F)F)cnc2n1C [Compound P12, 1-[5-ethylsulfonyl-6-[3-methyl-6-(trifluoromethyl)imidazo[4,5-b]pyridin-2-yl]-3-pyridyl]cyclopropanecarboxylic acid] | ≥ 80 | ≥ 80 | ≥ 80 | ≥ 80 | ≥ 80 |  | ≥ 80 | ≥ 80 |  | 
130 to 132 | CCSc1cc(C2CCCC2)cnc1-c1nc2cc(C(F)(F)F)cnc2n1C [Compound P2, 2-(5-cyclopentyl-3-ethylsulfanyl-2-pyridyl)-3-methyl-6-(trifluoromethyl) imidazo[4,5-b]pyridine] |  |  |  |  |  |  |  |  |  | 
 | CCS(=O)(=O)c1cc(C2CC2)cnc1-c1nc2cc(C(F)(F)F)cnc2n1C [Compound P4, 2-(5-cyclopropyl-3-ethylsulfonyl-2-pyridyl)-3-methyl-6-(trifluoromethyl) imidazo[4,5-b]pyridine] | ≥ 80 | ≥ 80 | ≥ 80 | ≥ 80 | ≥ 80 |  | ≥ 80 | ≥ 80 | ≥ 80 | 
148 to 150 | CCSc1cc(C2CCCCC2)cnc1-c1nc2cc(C(F)(F)F)cnc2n1C [Compound P3, 2-(5-cyclohexyl-3-ethylsulfanyl-2-pyridyl)-3-methyl-6-(trifluoromethyl) imidazo[4,5-b]pyridine] |  |  |  |  |  |  |  |  |  | 
 | CCS(=O)(=O)c1cc(C2CCCCC2)cnc1-c1nc2cc(C(F)(F)F)cnc2n1C [Compound P6] | ≥ 80 | ≥ 80 |  | ≥ 80 | ≥ 80 |  |  | ≥ 80 |  | 
 | CCS(=O)(=O)c1cc(C2(C#N)CCC2)cnc1-c1nc2cc(C(F)(F)F)cnc2n1C [Compound P10] | ≥ 80 | ≥ 80 | ≥ 80 | ≥ 80 | ≥ 80 |  |  | ≥ 80 |  | 
 | CCS(=O)(=O)c1cc(C2(C(N)=O)CC2)cnc1-c1nc2cc(C(F)(F)F)cnc2n1C [Compound P11, 1-[5-ethylsulfonyl-6-[3-methyl-6-(trifluoromethyl)imidazo[4,5-b]pyridin-2-yl]-3-pyridyl]cyclopropanecarboxamide] | ≥ 80 | ≥ 80 |  | ≥ 80 | ≥ 80 |  |  | ≥ 80 | ≥ 80 | ≥ 80
